Reference: patent publication US20100298141A1, “SUBSTITUTED PYRIDINE N-OXIDE HERBICIDES” (E. I. DU PONT DE NEMOURS AND COMPANY, priority 2007, published 2010)

Tests used:
Test in all cases: Test F preemergence test
Conditions in all cases: scale 0 to 100
bermudagrass = type: in vivo, Cynodon dactylon
In short: (§1)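 Compounds in a non-phytotoxic solvent formulation with surfactant were applied before emergence after sowing, or, for sugarcane, also postemergence. Evaluation was visual, against controls, after 14 to 21 greenhouse days.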

Surinam grass = type: in vivo, Brachiaria decumbens
In short: as §1

goosegrass = type: in vivo, Eleusine indica
In short: as §1

johnsongrass = type: in vivo, Sorghum halepense
In short: as §1

pitted morningglory = type: in vivo, Ipomoea lacunosa
In short: as §1

purple nutsedge = type: in vivo, Cyperus rotundus
In short: as §1

common ragweed = type: in vivo, Ambrosia elation
In short: as §1

guineagrass = type: in vivo, Panicum maximum
In short: as §1

southern sandbur = type: in vivo, Cenchrus echinatus
In short: as §1

prickly sida = type: in vivo, Sida spinosa
In short: as §1

Italian ryegrass = type: in vivo, Lolium multiflorum
In short: as §1

common purslane = type: in vivo, Portulaca oleracea
In short: as §1

broadleaf signalgrass = type: in vivo, Brachiaria platyphylla
In short: as §1

naked crabgrass = type: in vivo, Digitaria nuda
In short: as §1

itchgrass = type: in vivo, Rottboellia cochinchinensis
In short: as §1

field bindweed = type: in vivo, Convolvulus arvensis
In short: as §1

Cc1cc[n+]([O-])c(S(=O)(=O)Cc2c(C(F)(F)F)nn(C)c2OCC(F)(F)F)c1 [Compound 31]
Plant response rating, Bermudagrass (bermudagrass; 16 g ai/ha, preemergence): 20 | Bermudagrass plant response rating (bermudagrass; 62 g ai/ha, Preemergence): 100 | Bermudagrass plant response rating (bermudagrass; 125 g ai/ha, preemergence): 100 | Plant response rating, Bermudagrass (bermudagrass; Preemergence, 31 g ai/ha): 75 | Plant response rating, Surinam Grass (Surinam grass; 16 g ai/ha, preemergence): 20 | Surinam Grass plant response rating (Surinam grass; 125 g ai/ha, preemergence): 100 | Plant response rating, Surinam Grass (Surinam grass; Preemergence, 62 g ai/ha): 95 | Plant response rating, Surinam Grass (Surinam grass; Preemergence, 31 g ai/ha): 85 | Plant response rating, Goosegrass (goosegrass; 16 g ai/ha, preemergence): 50 | Goosegrass plant response rating (goosegrass; 62 g ai/ha, Preemergence): 100 | Goosegrass plant response rating (goosegrass; 125 g ai/ha, preemergence): 100 | Plant response rating, Goosegrass (goosegrass; Preemergence, 31 g ai/ha): 75 | Plant response rating, Johnsongrass (johnsongrass; 16 g ai/ha, preemergence): 40 | Johnsongrass plant response rating (johnsongrass; 62 g ai/ha, Preemergence): 100 | Johnsongrass plant response rating (johnsongrass; 125 g ai/ha, preemergence): 100 | Plant response rating, Johnsongrass (johnsongrass; Preemergence, 31 g ai/ha): 50 | Plant response rating, Morningglory (pitted morningglory; 16 g ai/ha, preemergence): 0 | Morningglory plant response rating (pitted morningglory; 62 g ai/ha, Preemergence): 60 | Morningglory plant response rating (pitted morningglory; 125 g ai/ha, preemergence): 98 | Plant response rating, Morningglory (pitted morningglory; Preemergence, 31 g ai/ha): 20 | Plant response rating, Purple Nutsedge (purple nutsedge; 16 g ai/ha, preemergence): 40 | Purple Nutsedge plant response rating (purple nutsedge; 62 g ai/ha, Preemergence): 70 | Purple Nutsedge plant response rating (purple nutsedge; 125 g ai/ha, preemergence): 100 | Plant response rating, Purple Nutsedge (purple nutsedge; Preemergence, 31 g ai/ha): 50 | Plant response rating, Ragweed (common ragweed; 16 g ai/ha, preemergence): 20 | Ragweed plant response rating (common ragweed; 125 g ai/ha, preemergence): 100 | Plant response rating, Ragweed (common ragweed; Preemergence, 62 g ai/ha): 90 | Plant response rating, Ragweed (common ragweed; Preemergence, 31 g ai/ha): 75 | Plant response rating, Guineagrass (guineagrass; 16 g ai/ha, preemergence): 80 | Guineagrass plant response rating (guineagrass; 62 g ai/ha, Preemergence): 100 | Guineagrass plant response rating (guineagrass; 125 g ai/ha, preemergence): 100 | Plant response rating, Guineagrass (guineagrass; Preemergence, 31 g ai/ha): 100 | Plant response rating, Sandbur (southern sandbur; 16 g ai/ha, preemergence): 40 | Sandbur plant response rating (southern sandbur; 125 g ai/ha, preemergence): 100 | Plant response rating, Sandbur (southern sandbur; Preemergence, 62 g ai/ha): 100 | Plant response rating, Sandbur (southern sandbur; Preemergence, 31 g ai/ha): 90 | Plant response rating, Prickly Sida (prickly sida; 16 g ai/ha, preemergence): 40 | Prickly Sida plant response rating (prickly sida; 62 g ai/ha, Preemergence): 80 | Prickly Sida plant response rating (prickly sida; 125 g ai/ha, preemergence): 100 | Plant response rating, Prickly Sida (prickly sida; Preemergence, 31 g ai/ha): 75 | Plant response rating, Ryegrass, Italian (Italian ryegrass; 16 g ai/ha, preemergence): 50 | Ryegrass, Italian plant response rating (Italian ryegrass; 125 g ai/ha, preemergence): 90 | Plant response rating, Ryegrass, Italian (Italian ryegrass; Preemergence, 62 g ai/ha): 90 | Plant response rating, Ryegrass, Italian (Italian ryegrass; Preemergence, 31 g ai/ha): 90 | Plant response rating, Purslane (common purslane; 16 g ai/ha, preemergence): 25 | Purslane plant response rating (common purslane; 62 g ai/ha, Preemergence): 40 | Purslane plant response rating (common purslane; 125 g ai/ha, preemergence): 65 | Plant response rating, Signalgrass (broadleaf signalgrass; 16 g ai/ha, preemergence): 35 | Signalgrass plant response rating (broadleaf signalgrass; 125 g ai/ha, preemergence): 98 | Plant response rating, Signalgrass (broadleaf signalgrass; Preemergence, 62 g ai/ha): 90 | Plant response rating, Signalgrass (broadleaf signalgrass; Preemergence, 31 g ai/ha): 60 | Plant response rating, Crabgrass, Naked (naked crabgrass; 16 g ai/ha, preemergence): 75 | Crabgrass, Naked plant response rating (naked crabgrass; 62 g ai/ha, Preemergence): 100 | Crabgrass, Naked plant response rating (naked crabgrass; 125 g ai/ha, preemergence): 100 | Plant response rating, Crabgrass, Naked (naked crabgrass; Preemergence, 31 g ai/ha): 85 | Plant response rating, Itchgrass (itchgrass; 16 g ai/ha, preemergence): 10 | Itchgrass plant response rating (itchgrass; 62 g ai/ha, Preemergence): 60 | Itchgrass plant response rating (itchgrass; 125 g ai/ha, preemergence): 80 | Plant response rating, Itchgrass (itchgrass; Preemergence, 31 g ai/ha): 25 | Plant response rating, Field Bindweed (field bindweed; 16 g ai/ha, preemergence): 0 | Field Bindweed plant response rating (field bindweed; 62 g ai/ha, Preemergence): 40 | Field Bindweed plant response rating (field bindweed; 125 g ai/ha, preemergence): 70 | Plant response rating, Field Bindweed (field bindweed; Preemergence, 31 g ai/ha): 0
